Laboratory results: the supplement of paper PMC11451515

Columns and labels:
Assay in all cases: AUC of viability dose-response curve (% viability x log10 dose units); higher = less sensitive
Settings in all cases: 48 h
[1] = system: SEM cells
Method in brief: (§1)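 Library compounds in DMSO were applied for 48 h at 37°C at 11 threefold doses (47 μM to 0.79 nM) to medium-adapted leukemia cells in 1536-well plates holding 500 or 1000 cells/well. Luminescence from CellTiter-Glo One was normalised plate by plate against DMSO and cell-free wells. Area under the curve came from trapezoidal integration of a log-logistic fit, after scaling curves that rose above full viability and discarding those that failed quality control. The fit had four parameters and used log10 doses.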

[2] = system: NOMO1
Method in brief: as §1

[3] = system: P12-Ichikawa
Method in brief: as §1

[4] = RPMI 5 mM glucose + 10% dialyzed FBS

| SMILES | AUC of viability dose-response curve ([1]; HPLM + 10% dialyzed FBS) | AUC of viability dose-response curve ([1]; RPMI 5 mM glucose + 10% FBS) | AUC of viability dose-response curve [1, 4] | AUC of viability dose-response curve ([2]; HPLM + 10% dialyzed FBS) | AUC of viability dose-response curve ([2]; RPMI 5 mM glucose + 10% FBS) | AUC of viability dose-response curve [2, 4] | AUC of viability dose-response curve ([3]; HPLM + 10% dialyzed FBS) | AUC of viability dose-response curve ([3]; RPMI 5 mM glucose + 10% FBS) | AUC of viability dose-response curve [3, 4] |
| --- | --- | --- | --- | --- | --- | --- | --- | --- | --- |
| CC(C)C1NC(=O)C(NC(=O)C2=C3\N=C\4/C(=C(C)\C(=O)\C(=C4C(=O)NC5C(C)OC(=O)C(C(C)C)N(C)C(=O)CN(C)C(=O)C6CCCN6C(=O)C(NC5=O)C(C)C)N)OC3=C(C)C=C2)C(C)OC(=O)C(C(C)C)N(C)C(=O)CN(C)C(=O)C7CCCN7C1=O (stereo unspecified) | 26.3 | 20.8 | 23.4 | 27.9 | 28.1 | 23 | 31.2 | 24.5 | 38 |
| C[C@@H](Oc1cc(-c2cnn(C3CCNCC3)c2)cnc1N)c1c(Cl)ccc(F)c1Cl | – | – | – | 391 | 429 | 424 | 419 | 415 | 400 |
| CN(C)[S+](=O)([O-])c1ccc2c(c1)C(=Cc1cc3c([nH]1)CCCC3)C(=O)N2 | 462 | 462 | 459 | 467 | 453 | 455 | 467 | 464 | 468 |
| COc1ccc(-c2ccc3ncc4c(c3c2)n(-c2ccc(N3CCNCC3)c(C(F)(F)F)c2)c(=O)n4C)cn1 | – | – | – | 209 | 255 | 218 | – | – | – |
| C[C@H](NC(=O)c1sccc1OCc1ccc(Cl)cc1)c1ccccc1 | 408 | 449 | 450 | 382 | 388 | 394 | 407 | 398 | 407 |
| CC(C)c1nc(CN(C)C(=O)N[C@H](C(=O)N[C@@H](Cc2ccccc2)C[C@H](O)[C@H](Cc2ccccc2)NC(=O)OCc2cncs2)C(C)C)cs1 | 410 | 429 | 427 | – | – | – | 425 | 411 | 396 |
| C[C@H]1COC2=C3N1\C=C(C(O)=O)/C(=O)C3=CC(=C2N4CCN(C)CC4)F | 398 | 373 | 420 | 426 | 454 | 441 | 427 | 429 | 416 |
| O=C(O)CCC1CCC(c2cc(F)ccc2F)([S+](=O)([O-])c2ccc(Cl)cc2)CC1 (stereo unspecified) | 464 | 470 | 468 | 373 | 357 | 378 | 403 | 412 | 428 |
| CCN(CC)CCOc1ccc(/C(=C(\Cl)c2ccccc2)c2ccccc2)cc1 | 470 | 462 | 470 | 458 | 471 | 473 | 466 | 469 | 456 |
| C[C@@H]1COCCN1c1cc(C2([S@+](C)(=N)[O-])CC2)nc(-c2ccnc3[nH]ccc23)n1 | 333 | 335 | 336 | 358 | 390 | 382 | 380 | 381 | 368 |
| CCOC(=O)c1ccc(OC(=O)CCCCCNC(=N)N)cc1 | 436 | 385 | 418 | 410 | 444 | 437 | 354 | 413 | 407 |
| CCc1ccc(CCOc2ccc(CC3SC(=O)NC3=O)cc2)nc1 (stereo unspecified) | 444 | 402 | 474 | 448 | 442 | 460 | 450 | 473 | 469 |
| FC1=CC=C(C=C1)N2/C=C\C=C(C(=O)NC3=CC=C(OC4=C5C=C[NH]C5=NC=C4)C(=C3)F)/C2=O | – | – | – | 445 | 456 | 459 | 465 | 459 | 466 |
| CNC(=O)c1ccc2cc(C3(O)CCn4cncc43)ccc2c1 (stereo unspecified) | 441 | 450 | 452 | 458 | 456 | 456 | 453 | 469 | 453 |
| CC[S+](=O)([O-])c1cccc(-c2cc(C(=O)NC3CCN(C)CC3)c(C)c3[nH]c4ncc(C)cc4c23)c1 | 312 | 285 | 297 | 354 | 385 | 359 | 298 | 290 | 320 |
| Cc1nn(Cc2ccccc2Cl)c(C)c1CN(C)CC(O)COc1ccc(Cl)cc1 (stereo unspecified) | 436 | 432 | 430 | 445 | 428 | 436 | 463 | 440 | 435 |
| COc1ccccc1OCC(O)COC(N)=O (stereo unspecified) | 467 | 465 | 459 | – | – | – | 466 | 461 | 461 |
| CN[C@@H]1[C@@H](O)[C@@H](O[C@@H]2[C@@H](O)[C@H](O[C@H]3O[C@H](CN)[C@@H](O)[C@H](O)[C@H]3O)[C@@H](N)C[C@H]2NC(=O)[C@@H](O)CN)OC[C@]1(C)O | 453 | 463 | 468 | 452 | 457 | 440 | 457 | 449 | 411 |
| COCC1(CO)C(=O)C2CCN1CC2 (stereo unspecified) | – | – | – | 435 | 446 | 462 | 413 | 414 | 421 |
| N#CCNC(=O)c1ccc(-c2ccnc(Nc3ccc(N4CCOCC4)cc3)n2)cc1 | 405 | 412 | 394 | – | – | – | 447 | 442 | 434 |
| CC(C)c1noc(N2CCC(COc3ccc(-c4ccc([S+](C)(=O)[O-])cc4)nc3)CC2)n1 | – | – | – | 467 | 459 | 463 | 454 | 453 | 452 |
| FC1=C(C=C(C\C2=N\NC(=O)C3=C2C=CC=C3)C=C1)C(=O)N4CCN(CC4)C(=O)C5CC5 | – | – | – | 439 | 400 | 422 | 421 | 390 | 393 |
| O=C1[C@H](Cc2ccc(O)cc2)N2C(=O)CCN(C(=O)NCc3ccccc3)[C@H]2CN1Cc1cccc2ccccc12 | 334 | 384 | 363 | – | – | – | 404 | 375 | 361 |
| CC(C)OC(=O)/C1=C/N(CC(C)(C)C2=C1[NH]C3=CC=CC=C23)C(=O)C4=CC=C(F)C(=C4)F | 342 | 364 | 394 | 424 | 384 | 351 | – | – | – |
| Cc1ccccc1C(=O)c1ccc(Nc2ccc(Br)cc2N)cc1Cl | – | – | – | 467 | 466 | 455 | 454 | 461 | 441 |
